Test results reported in patent publication US20250059220A1, “SUBSTITUTED BENZOTHIOPHENE DERIVATIVES AND METHODS OF USE THEREOF” (Merck Sharp & Dohme LLC, priority 2021, published 2025).

Legend:
[1] = biological target: human PTPN1 (1-435) (Homo sapiens (Human), UniProt P18031); test: Human PTPN1 Biochemical Assay; settings: DiFMUP substrate, read-out: PTP1B IC50
Outline: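 Read-out is DiFMUP hydrolysis fluorescence (360 nm excitation, 460 nm emission) after 1 h at room temperature, following 30 min enzyme–compound preincubation.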

[2] = biological target: human PTPN2 (1-387) (Homo sapiens (Human), UniProt P17706); test: Human PTPN2 Biochemical Assay; settings: DiFMUP substrate
Outline: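 Fluorogenic DiFMUP hydrolysis (1 h, room temperature, read ex 360/em 460 nm) after 30 min compound preincubation with PTPN2 residues 1-387, in 50 mM Tris pH 7.4, 150 mM NaCl, 0.01% Tween20, 0.5 mM DTT. Effects scaled between buffer and enzyme controls, 4-parameter fit gives EC50.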

human PTPN1 (1-435), sequence (P18031 whole entry): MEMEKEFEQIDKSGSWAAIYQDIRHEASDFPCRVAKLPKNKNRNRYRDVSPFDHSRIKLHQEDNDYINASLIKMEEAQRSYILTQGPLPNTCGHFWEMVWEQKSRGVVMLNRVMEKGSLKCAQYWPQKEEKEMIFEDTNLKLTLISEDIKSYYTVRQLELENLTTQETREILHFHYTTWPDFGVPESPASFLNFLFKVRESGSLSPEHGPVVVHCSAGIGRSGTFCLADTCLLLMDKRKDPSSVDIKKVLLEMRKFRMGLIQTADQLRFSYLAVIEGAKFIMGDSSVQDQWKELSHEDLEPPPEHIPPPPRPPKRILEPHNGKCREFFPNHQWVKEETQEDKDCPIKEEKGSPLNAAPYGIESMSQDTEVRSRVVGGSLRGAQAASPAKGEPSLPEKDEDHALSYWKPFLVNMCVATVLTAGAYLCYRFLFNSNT
human PTPN2 (1-387), sequence (P17706 other isoform, or with tags, fused parts or gaps): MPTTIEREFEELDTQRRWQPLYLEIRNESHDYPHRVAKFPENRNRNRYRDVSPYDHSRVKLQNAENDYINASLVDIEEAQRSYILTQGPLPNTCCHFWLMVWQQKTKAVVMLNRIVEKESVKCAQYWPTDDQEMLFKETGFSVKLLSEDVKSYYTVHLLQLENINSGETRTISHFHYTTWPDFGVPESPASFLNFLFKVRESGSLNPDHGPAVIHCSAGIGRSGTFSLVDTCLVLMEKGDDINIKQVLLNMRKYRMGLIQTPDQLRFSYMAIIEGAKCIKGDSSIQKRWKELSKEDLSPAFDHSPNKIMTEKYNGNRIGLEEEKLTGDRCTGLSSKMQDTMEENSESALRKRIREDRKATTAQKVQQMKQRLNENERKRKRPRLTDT

Cc1cc(S(C)(=O)=O)ccc1COc1cc(C(N)=O)cc2c(Br)c(C(F)(F)P(=O)(O)O)sc12 [Compound 391]
IC50 [1]: 0.0124 µM | IC50 [2]: 0.0063 µM

COC(C)(C)C#Cc1cc(C(N)=O)cc2c(Br)c(C(F)(F)P(=O)(O)O)sc12 [Compound 234, ((3-bromo-5-carbamoyl-7-(3-methoxy-3-methylbut-1-yn-1-yl)benzo[b]thiophen-2-yl)difluoromethyl)phosphonic acid]
IC50 [1]: 0.49 µM | IC50 [2]: 0.773 µM

CS(=O)(=O)CCCOc1cc(C(N)=O)cc2c(C(F)F)c(C(F)(F)P(=O)(O)O)sc12 [Compound 454, ((5-carbamoyl-3-(difluoromethyl)-7-(3-(methylsulfonyl)propoxy)benzo[b]thiophen-2-yl)difluoromethyl)phosphonic acid]
IC50 [1]: 0.0403 µM | IC50 [2]: 0.0245 µM

O=C(Nc1cccc(-c2cnco2)c1)c1ccc2sc(C(F)(F)P(=O)(O)O)c(Br)c2c1 [Compound 61]
IC50 [1]: 0.638 µM | IC50 [2]: 0.904 µM

O=C(NCCc1cnc2n(c1=O)CCCC2)c1ccc2sc(C(F)(F)P(=O)(O)O)c(Br)c2c1 [Compound 72]
IC50 [1]: 2.75 µM | IC50 [2]: 3.52 µM

NC(=O)c1cc(OCCC(F)(F)C(F)(F)C(F)F)c2sc(C(F)(F)P(=O)(O)O)c(Br)c2c1 [Compound 291]
IC50 [1]: 0.021 µM | IC50 [2]: 0.0268 µM

COc1cccc(NCc2ccc3sc(C(F)(F)P(=O)(O)O)c(Br)c3c2)c1 [Compound 220, ((3-bromo-5-(((3-methoxyphenyl)amino)methyl)benzo[b]thiophen-2-yl)difluoromethyl)phosphonic acid]
IC50 [1]: 7.14 µM | IC50 [2]: 6.06 µM

CNC(=O)c1cc(OCCC(C)(F)F)c2sc(C(F)(F)P(=O)(O)O)c(Br)c2c1 [Compound 325]
IC50 [1]: 0.183 µM | IC50 [2]: 0.385 µM

O=C(NCc1cccnn1)c1cc(Cl)c2sc(C(F)(F)P(=O)(O)O)c(Br)c2c1 [Compound 160]
IC50 [1]: 0.315 µM | IC50 [2]: 0.546 µM

O=C(NCc1cnc2[nH]ccc2c1)c1ccc2sc(C(F)(F)P(=O)(O)O)c(Br)c2c1 [Compound 119]
IC50 [1]: 0.404 µM | IC50 [2]: 0.63 µM

C[C@H](NC(=O)c1ccc2sc(C(F)(F)P(=O)(O)O)c(Br)c2c1)c1cccnc1 [Compound 200]
IC50 [1]: 0.976 µM | IC50 [2]: 1.47 µM

NC(=O)c1cc(OC[C@@H]2CC[C@H]2C(F)(F)F)c2sc(C(F)(F)P(=O)(O)O)c(Br)c2c1 [Compound 279]
IC50 [1]: 0.097 µM | IC50 [2]: 0.231 µM

O=C(NCc1cncc(F)c1)c1ccc2sc(C(F)(F)P(=O)(O)O)c(Br)c2c1 [Compound 135]
IC50 [1]: 1.92 µM | IC50 [2]: 1.9 µM

CC[C@@H]1C[C@H]1COc1cc(C(N)=O)cc2c(Br)c(C(F)(F)P(=O)(O)O)sc12 [Compound 289]
IC50 [1]: 0.0536 µM | IC50 [2]: 0.0632 µM

NC(=O)c1cc(OCc2ccc(-n3ccnc3)cc2)c2sc(C(F)(F)P(=O)(O)O)c(Br)c2c1 [Compound 355]
IC50 [1]: 0.118 µM | IC50 [2]: 0.0163 µM

CNC(=O)c1cc(OCCCC(F)(F)F)c2sc(C(F)(F)P(=O)(O)O)c(Br)c2c1 [Compound 203]
IC50 [1]: 0.0172 µM | IC50 [2]: 0.0164 µM

CC(F)(F)CCCOc1cc(C(N)=O)cc2c(Br)c(C(F)(F)P(=O)(O)O)sc12 [Compound 281]
IC50 [1]: 0.018 µM | IC50 [2]: 0.0278 µM

O=C(NCc1nnc2n1CCC2)c1ccc2sc(C(F)(F)P(=O)(O)O)c(Br)c2c1 [Compound 51]
IC50 [1]: 1.11 µM | IC50 [2]: 1.35 µM

CCOc1cc(C(N)=O)cc2c(Br)c(C(F)(F)P(=O)(O)O)sc12 [Compound 238]
IC50 [1]: 0.327 µM | IC50 [2]: 0.227 µM

O=C(NC1CCS(=O)(=O)C1)c1ccc2sc(C(F)(F)P(=O)(O)O)c(Br)c2c1 (centres unmarked) [Compound 56]
IC50 [1]: 2.88 µM | IC50 [2]: 3.93 µM

CC(Cn1ccnc1)NC(=O)c1ccc2sc(C(F)(F)P(=O)(O)O)c(Br)c2c1 (centres unmarked) [Compound 148]
IC50 [1]: 5.27 µM | IC50 [2]: 5.94 µM

CS(=O)(=O)CCCOc1cc(-c2cc(=O)cc[nH]2)cc2c(Br)c(C(F)(F)P(=O)(O)O)sc12 [Compound 460, ((3-bromo-7-(3-(methylsulfonyl)propoxy)-5-(4-oxo-1,4-dihydropyridin-2-yl)benzo[b]thiophen-2-yl)difluoromethyl)phosphonic acid]
IC50 [1]: 0.0025 µM | IC50 [2]: 0.0025 µM

O=C(NC1CCS(=O)(=O)CC1)c1ccc2sc(C(F)(F)P(=O)(O)O)c(Br)c2c1 [Compound 128]
IC50 [1]: 4.08 µM | IC50 [2]: 4.9 µM

O=C(NC(c1ccccc1F)C(F)(F)F)c1ccc2sc(C(F)(F)P(=O)(O)O)c(Br)c2c1 (centres unmarked) [Compound 13]
IC50 [1]: 4.11 µM | IC50 [2]: 5.3 µM

NC(=O)c1cc(OCc2ccc(-n3cncn3)cc2)c2sc(C(F)(F)P(=O)(O)O)c(Br)c2c1 [Compound 353]
IC50 [1]: 0.14 µM | IC50 [2]: 0.0385 µM

CCC(NC(=O)c1ccc2sc(C(F)(F)P(=O)(O)O)c(Br)c2c1)c1cccnc1 (centres unmarked) [Compound 177]
IC50 [1]: 0.839 µM | IC50 [2]: 2.07 µM

CC(Cn1cncn1)NC(=O)c1ccc2sc(C(F)(F)P(=O)(O)O)c(Br)c2c1 (centres unmarked) [Compound 145]
IC50 [1]: 4.59 µM | IC50 [2]: 6.98 µM

NC(=O)c1cc(OCc2ccc(C3CC3)cc2Cl)c2sc(C(F)(F)P(=O)(O)O)c(Br)c2c1 [Compound 399]
IC50 [1]: 0.213 µM | IC50 [2]: 0.069 µM

CS(=O)(=O)CCCOc1cc(C(N)=O)cc2c(C#N)c(C(F)(F)P(=O)(O)O)sc12 [Compound 421, ((5-carbamoyl-3-cyano-7-(3-(methylsulfonyl)propoxy)benzo[b]thiophen-2-yl)difluoromethyl)phosphonic acid]
IC50 [1]: 0.0119 µM | IC50 [2]: 0.00487 µM

O=P(O)(O)C(F)(F)c1sc2c(NCCCC(F)(F)F)cccc2c1Br [Compound 226, ((3-bromo-7-((4,4,4-trifluorobutyl)amino)benzo[b]thiophen-2-yl)difluoromethyl)phosphonic acid]
IC50 [1]: 2.03 µM | IC50 [2]: 2.69 µM

Cc1ccc(COc2cc(C(N)=O)cc3c(Br)c(C(F)(F)P(=O)(O)O)sc23)c(C)c1 [Compound 337]
IC50 [1]: 0.158 µM | IC50 [2]: 0.0833 µM

O=C(Nc1ccccc1)c1ccc2sc(C(F)(F)P(=O)(O)O)c(Br)c2c1 [Compound 1, ((3-bromo-5-(phenylcarbamoyl)benzo[b]thiophen-2-yl)difluoromethyl)phosphonic acid]
IC50 [1]: 1.61 µM | IC50 [2]: 3.01 µM

CC1CCc2c(sc(NC(=O)c3ccc4sc(C(F)(F)P(=O)(O)O)c(Br)c4c3)c2C#N)C1 (centres unmarked) [Compound 63]
IC50 [1]: 0.444 µM | IC50 [2]: 0.542 µM

NC(=O)c1cc(CCc2ccccc2)c2sc(C(F)(F)P(=O)(O)O)c(Br)c2c1 [Compound 313]
IC50 [1]: 0.146 µM | IC50 [2]: 0.132 µM

CNC(=O)c1cc(OCCCS(C)(=O)=O)c2sc(C(F)(F)P(=O)(O)O)c(C)c2c1 [Compound 430]
IC50 [1]: 0.0617 µM | IC50 [2]: 0.109 µM

O=C(NCCSC(F)(F)F)c1ccc2sc(C(F)(F)P(=O)(O)O)c(Br)c2c1 [Compound 157]
IC50 [1]: 2.38 µM | IC50 [2]: 5.25 µM

CS(=O)(=O)N1CCC(Oc2cc(C(N)=O)cc3c(Br)c(C(F)(F)P(=O)(O)O)sc23)C1 (centres unmarked) [Compound 248]
IC50 [1]: 0.054 µM | IC50 [2]: 0.05 µM

O=C(NC[C@]12C[C@@H]1CCN2Cc1ccccc1)c1ccc2sc(C(F)(F)P(=O)(O)O)c(Br)c2c1 [Compound 88]
IC50 [1]: 1.09 µM | IC50 [2]: 1.51 µM

C[C@H](NC(=O)c1ccc2sc(C(F)(F)P(=O)(O)O)c(Br)c2c1)c1ccccn1 [Compound 185]
IC50 [1]: 3.39 µM | IC50 [2]: 5.2 µM

O=C(NCC1CCCN(c2ncccn2)C1)c1ccc2sc(C(F)(F)P(=O)(O)O)c(Br)c2c1 (centres unmarked) [Compound 114]
IC50 [1]: 3.5 µM | IC50 [2]: 5.17 µM

Cn1nncc1CNC(=O)c1ccc2sc(C(F)(F)P(=O)(O)O)c(Br)c2c1 [Compound 193]
IC50 [1]: 3.14 µM | IC50 [2]: 5.83 µM

O=C(Nc1cccc(CO)n1)c1ccc2sc(C(F)(F)P(=O)(O)O)c(Br)c2c1 [Compound 104]
IC50 [1]: 9.15 µM | IC50 [2]: 6.5 µM

O=C(NCc1cccnn1)c1cc(OCCCCn2ccnc2)c2sc(C(F)(F)P(=O)(O)O)c(Br)c2c1 [Compound 265]
IC50 [1]: 0.062 µM | IC50 [2]: 0.0603 µM

CC(NC(=O)c1ccc2sc(C(F)(F)P(=O)(O)O)c(Br)c2c1)c1ccon1 (centres unmarked) [Compound 194]
IC50 [1]: 1.74 µM | IC50 [2]: 3.2 µM

N#Cc1cc(C(=O)NCc2cccnn2)cc2c(Br)c(C(F)(F)P(=O)(O)O)sc12 [Compound 161]
IC50 [1]: 0.446 µM | IC50 [2]: 0.344 µM

O=C(NCC1CC(F)(F)C1)c1ccc2sc(C(F)(F)P(=O)(O)O)c(Br)c2c1 [Compound 28]
IC50 [1]: 5.16 µM | IC50 [2]: 6.93 µM
